*1 amine or outer side, *2 acyl side, *3 side chain or, on linkers, in order; H or OH if unused. Where a SMILES comes first, the peptide text is derived from it. Side-chain parts run from the residue outwards. [ ]: non-standard residue; d: D form. The star is where a group is joined. C18 diacid = O=C(O)CCCCCCCCCCCCCCCCC(=O)*; C16 diacid = O=C(O)CCCCCCCCCCCCCCC(=O)*; γGlu = O=C(O)[C@H](CCC(=O)[*:2])N[*:1]; AEEA = NCCOCCOCC(=O)O; Aib = CC(C)(N)C(=O)O
Target: T1, CFR1R receptor (Homo sapiens, UniProt P34998)
T1 construct: host or cells: CHO-K1 (clone 2)
T1 sequence (P34998 24-415): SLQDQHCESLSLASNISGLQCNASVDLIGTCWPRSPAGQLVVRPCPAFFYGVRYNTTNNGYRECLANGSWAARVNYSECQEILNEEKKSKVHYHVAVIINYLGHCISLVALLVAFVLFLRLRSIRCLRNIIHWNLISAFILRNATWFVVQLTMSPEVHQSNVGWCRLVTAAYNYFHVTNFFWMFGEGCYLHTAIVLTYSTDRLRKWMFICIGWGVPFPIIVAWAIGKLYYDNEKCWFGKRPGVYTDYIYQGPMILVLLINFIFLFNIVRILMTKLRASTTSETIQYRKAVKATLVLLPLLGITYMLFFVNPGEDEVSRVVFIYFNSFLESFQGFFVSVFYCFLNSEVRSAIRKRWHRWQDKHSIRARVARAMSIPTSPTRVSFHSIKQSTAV
Assay: Activity at anti-target CFR1R receptor, cAMP assay in CRF1R-overexpression CHO-K1 cells
Assay type: cell-based
Details: 100% = Sauvagine at 100 nM
Method: Assessment of activity at anti-target CFR1R receptor is done using the same procedure as the one described for the TeloHEAC cell line. The CRF1R-overexpression CHO-K1 cell line clone 2 was purchased from PerkinElmer. Cells were grown in a 10 cm dish at 37° C./5% CO2 in medium (F12 (Hams)/10% FBS/400 μg/ml G418) to near confluence. At that stage, cells were harvested, resuspended to 10 million/mL in culture medium without G418 and with 10% DMSO. 1 mL vial aliquots were slowly frozen to −80° C. in isopropanol and then transferred in liquid nitrogen for storage. These vials were used to run the experiment following the procedure reported in the previous paragraph, except for the compound used in the control well to define the 100% activation (Sauvagine at 100 nM) and the cell density (final cell density: 4000 cells/well)

Structure (SMILES)	Emax (% I)	Emax (% I) (listed as 2)
CC[C@H](C)[C@H](NC(C)=O)C(=O)N[C@H](C(=O)N[C@@H](CC(C)C)C(=O)N[C@@H](CO)C(=O)N[C@@H](CC(C)C)C(=O)N[C@@H](CC(=O)O)C(=O)N[C@@H](C(=O)N1CCC[C@H]1C(=O)N[C@H](C(=O)N[C@@H](CCCCN)C(=O)N[C@@H](CC(C)C)C(=O)N[C@@H](CCCCNC(=O)COCCOCCNC(=O)COCCOCCNC(=O)CC[C@H](NC(=O)CC[C@H](NC(=O)CCCCCCCCCCCCCCCCC(=O)O)C(=O)O)C(=O)O)C(=O)N[C@@H](CCC(N)=O)C(=O)NC(C)(C)C(=O)N[C@@H](CC(C)C)C(=O)N[C@@H](CC(C)C)C(=O)N[C@@H](CCCCN)C(=O)N[C@@H](CCC(N)=O)C(=O)N[C@@H](CCC(=O)O)C(=O)N[C@@H](CCCNC(=N)N)C(=O)N[C@@H](CCC(N)=O)C(=O)N[C@@H](CCCCN)C(=O)N[C@@H](CCCCN)C(=O)N[C@@H](CCC(N)=O)C(=O)N[C@@H](CCCNC(=N)N)C(=O)N[C@@H](CCC(=O)O)C(=O)N[C@@H](CCC(N)=O)C(=O)N[C@@H](C)C(=O)N[C@@H](CCC(=O)O)C(=O)N[C@@H](CCCCN)C(=O)N[C@@H](CC(N)=O)C(=O)N[C@H](C(=O)N[C@@H](CCC(N)=O)C(=O)N[C@H](C(=O)N[C@@H](CC(C)C)C(=O)N[C@@H](CCC(=O)O)C(=O)N[C@@H](CCC(N)=O)C(=O)N[C@H](C(N)=O)C(C)C)[C@@H](C)CC)C(C)C)[C@@H](C)CC)C(C)C)C(C)C [compound 27] (Ac-IVLSLD[dV]PIKLK([AEEA-AEEA-γGlu-γGlu-C18 diacid])Q[Aib]LLKQERQKKQREQAEKNVQILEQV-NH2)	7 % I	–
CC[C@H](C)[C@H](N)C(=O)N[C@H](C(=O)N[C@@H](CC(C)C)C(=O)N[C@@H](CO)C(=O)N[C@@H](CC(C)C)C(=O)N[C@@H](CC(=O)O)C(=O)N[C@@H](C(=O)N1CCC[C@H]1C(=O)N[C@H](C(=O)N[C@@H](CCCCN)C(=O)N[C@@H](CC(C)C)C(=O)N[C@@H](CCCCNC(=O)COCCOCCNC(=O)COCCOCCNC(=O)CC[C@H](NC(=O)CCCCCCCCCCCCCCC(=O)O)C(=O)O)C(=O)N[C@@H](CCC(N)=O)C(=O)N[C@H](C(=O)N[C@@H](CC(C)C)C(=O)N[C@@H](CC(C)C)C(=O)N[C@@H](CCCCN)C(=O)N[C@@H](CCC(N)=O)C(=O)N[C@@H](CCC(=O)O)C(=O)N[C@@H](CCCNC(=N)N)C(=O)N[C@@H](CCC(N)=O)C(=O)N[C@@H](CCCCN)C(=O)N[C@@H](CCCCN)C(=O)N[C@@H](CCC(N)=O)C(=O)N[C@@H](CCCNC(=N)N)C(=O)N[C@@H](CCC(=O)O)C(=O)N[C@@H](CCC(N)=O)C(=O)N[C@@H](C)C(=O)N[C@@H](CCC(=O)O)C(=O)N[C@@H](CCCCN)C(=O)N[C@@H](CC(N)=O)C(=O)N[C@@H](CCCCN)C(=O)N[C@@H](CCC(N)=O)C(=O)N[C@H](C(=O)N[C@@H](CC(C)C)C(=O)N[C@@H](CCC(=O)O)C(=O)N[C@@H](CCC(N)=O)C(=O)N[C@H](C(N)=O)C(C)C)[C@@H](C)CC)[C@@H](C)CC)[C@@H](C)CC)C(C)C)C(C)C [SEQ ID No. 148, reference compound] (H-IVLSLD[dV]PIKLK([AEEA-AEEA-γGlu-C16 diacid])QILLKQERQKKQREQAEKNKQILEQV-NH2)	–	63 % I

From US20260001928A1 (CORTERIA PHARMACEUTICALS, priority 2022, published 2026)
